From US20260284240A1, “RADIOLABELED COMPOUND FOR USE IN A METHOD OF TREATING CARBONIC ANHYDRASE IX POSITIVE DISEASES” (DEBIOPHARM INTERNATIONAL S.A., priority 2023, published 2026)
Where two headings read alike, the source gives them in different places. Starred links: 1 amine or outer side, 2 acyl side, 3 side chain; linkers in the order of their positions; H or OH if unused. Positions of bridges follow the written chain, without caps; N, C: chain ends. Non-standard residues stand in square brackets, D forms with d. Residues, ends and D or L forms follow the SMILES beside them. *: point of attachment. Phe(3-NHCO(CH2)3SO2NH2) = N[C@@H](Cc1cccc(NC(=O)CCCS(N)(=O)=O)c1)C(=O)O; DOTA = O=C(O)CN1CCN(CC(=O)O)CCN(CC(=O)*)CCN(CC(=O)O)CC1; mXylylene = c1cc(C[*:1])cc(C[*:2])c1; X1 = O=C(CN1CCN([*:1])CC1)[*:2]

What was measured:
[1] = Pharmacokinetics after single i.v. dose in healthy male CD-1 mice; assay type: in vivo; conditions: urine, iv, mouse, read-out: Injected dose retrieved from urine unchanged over 8 hours
Protocol: (§1) The pharmacokinetics of DPI-4452 after a single intravenous (i.v.) dose were investigated in healthy mice. […] Plasma and urine samples collected after dosing were analyzed using a LC-HRMS (liquid chromatography coupled with high-resolution mass spectrometry) assay method. Concentration values were used for pharmacokinetic calculations.
Male CD-1 mice (3 animals per time point and per dose level; overall, 28.2-37.6 g body weight) were administered intravenously in the tail vein in a 2 mL/kg dosing volume. Blood samples were collected in K2EDTA tubes at 5 min, 15 min, 30 min, 1 h, 2 h, 4 h, 8 h, and urine was collected over 8 hours post dose. […]
Plasma and urine samples were analyzed by LC-HRMS after solid phase extraction, using a stable isotope-labeled internal standard (^13C6, ^15N-DPI-4452). […] The lower limit of quantification was 1.00 ng/mL in plasma and urine.
The non-compartmental (NCA) pharmacokinetic analysis of plasma concentration data was conducted using Phoenix 64 WinNonlin (Build 8.3.3.33) software. […] The terminal phase half-life (T1/2) was calculated by least-squares regression analysis of the terminal linear part of the log concentration-time curve. The area under the plasma concentration-time curve (AUC) was determined with the linear trapezoidal rule for increasing values and log trapezoidal rule for decreasing values up to the last measurable concentration.

[2] = Pharmacokinetics after single i.v. dose in healthy male beagle dogs; assay type: in vivo; conditions: dog; for concentration at 24 h / dose excreted at 24 h: iv; for concentration at 24 h: 24 h urine, read-out: Mean amount of unchanged compound excreted in urine; for dose excreted at 24 h: urine, read-out: Dose excreted unchanged in urine
Protocol: as §1, with “dose was” for “dose were”, “healthy dogs.” for “healthy mice.”
DPI 4452 was formulated in 0.1 M HEPES pH 7.0 at the final concentrations of 0.05 and 0.4 mg/mL for dosing at 0.1 and 0.8 mg/kg, respectively. Male beagle dogs (3 animals per dose level; overall 8.9 to 12.4 kg body weight) were administered intravenously (bolus) in a 2 mL/kg dosing volume. Blood samples were collected in K2EDTA tubes at 5 min, 15 min, 30 min, 1 h, 2 h, 4 h, 6 h, 24 h, and urine was collected over 24 hours post dose. The blood samples were kept on wet ice until plasma separation by centrifugation within 60 min after sampling. The plasma samples were transferred into plastic tubes, frozen and stored at −80° C. until analysis.
Plasma and urine samples were analyzed by LC-HRMS after solid phase extraction, using DPI-4501 as internal standard. Chromatographic separation was run on a Waters Acquity HSS T3 C18 2.1×50 mm, 1.8 μm column. Detection was achieved on a Sciex AP16600 TOF mass spectrometer. The lower limit of quantification was 2.00 ng/mL in urine and plasma.
The NCA pharmacokinetic analysis of plasma concentration data was conducted using Phoenix WinNonlin 6.3 software. Nominal doses were used for all animals. The terminal phase half-life (T1/2) was calculated by least-squares regression analysis of the terminal linear part of the log concentration-time curve. The area under the plasma concentration-time curve (AUC) was determined with the linear trapezoidal rule for increasing values and log trapezoidal rule for decreasing values up to the last measurable concentration.

[3] = Allometric prediction of human PK parameters from mouse and dog PK; conditions: allometry from mouse and dog
Protocol: From the variety of CL, Vd and T1/2 determined in the animal studies, the highest and lowest values for each species were retained, and allometry was conducted on all the combinations to obtain a range for each predicted human PK parameter.

[4] = Toxicokinetics in the dose range finding study in dogs (LC-HRMS plasma); assay type: in vivo, dog; conditions: for CL / Vss / t1/2 / Dose-normalized AUClast / AUClast / concentration at […]: dog plasma, i.v. bolus; for CL / Vss / t1/2 / AUClast / concentration at […]: mean n = 2; for Dose-normalized AUClast: AUClast divided by dose in μg/kg; for concentration at […]: iv, read-out: C15 min
Protocol: The following parameters and endpoints were evaluated: mortality, clinical observations, body weights, food consumption, local reactions, clinical pathology parameters (hematology, coagulation, and clinical chemistry), organ weights, and macroscopic examinations. Both animals were sampled for toxicokinetics (TK) on each dosing occasion (i.e., on day 1, day 5, day 9 and day 13) at: pre-dose, 15 min, 30 min, 1 h, 6 h and 24 h. Blood samples were collected in K2EDTA tubes. Plasma was prepared by centrifugation (2500 g for 10 minutes, +4° C.) within 1 hour after collection, and then frozen within 1 hour after centrifugation and stored at −80° C. […] Chromatographic separation was achieved using a Waters Acquity UPLC system with a Waters Acquity HSS T3 C18 2.1×50 mm, 1.8 μm column. Chromatography was conducted at 50° C. at a flow rate of 0.7 mL/min using a mobile phase consisting of A: acetonitrile, and B: 1% formic acid in water, according to the following linear gradient: 0 to 0.1 min: 90% B; 0.1 to 4.1 min: from 90% B to 74% B; 4.1 to 4.2 min: from 74% B to 5% B; 4.2 to 4.6 min: 5% B; 4.6 to 4.7 min: from 5% B to 90% B; 4.7-5.1 min; 90% B. Detection was performed using a Sciex AP16600 TOF mass spectrometer. Toxicokinetic parameters were estimated from concentration-time data using Phoenix pharmacokinetic software (version 6.4, Certara L.P.). A non-compartmental approach consistent with the bolus intravenous injection was used for parameter estimation. […] Neither in-life parameters nor clinical pathology parameters were affected. In addition, there were no related macroscopic observations noted at necropsy.

## CC(C)C[C@@H]1NC(=O)[C@H](Cc2cccc(NC(=O)CCCS(N)(=O)=O)c2)NC(=O)[C@H](CC(=O)O)NC(=O)[C@H]2CCCN2C(=O)[C@H](CCC(=O)O)NC(=O)[C@@H](NC(=O)[C@H](CCC(N)=O)NC(=O)CN2CCN(C(=O)CN3CCN(CC(=O)O)CCN(CC(=O)O)CCN(CC(=O)O)CC3)CC2)CSCc2cccc(c2)CSC[C@@H](C(N)=O)NC(=O)[C@H](CO)NC(=O)[C@H](Cc2c[nH]c3ccccc23)NC(=O)[C@H]([C@@H](C)O)NC1=O [DPI-4452, DOTA-PPAc-Gln-[Cys(3MeBn)-Glu-pro-Asp-Af3(Cpsu)-Leu-Thr-Trp-Ser-Cys]-NH2] ({DOTA}-[X1]QCE[dP]D[Phe(3-NHCO(CH2)3SO2NH2)]LTWSC-NH2; linker 3-12 via mXylylene)
[1]; i.v. 0.7 mg/kg
  dose excreted at 8 h: 3.57%
[1]; i.v. 5.5 mg/kg
  dose excreted at 8 h: 8.89%
[2]; i.v. 0.1 mg/kg
  Time up to which plasma concentration was quantifiable: up to 2 h
  concentration at 24 h: 26.8 ng/mL
  dose excreted at 24 h: 0.29%
[2]; i.v. 0.8 mg/kg
  Time up to which plasma concentration was quantifiable: ≤ 4 h
  concentration at 24 h: 191 ng/mL
  dose excreted at 24 h: 0.14%
[3]
  Predicted human clearance (CL): 3.57 to 13.0 mL/min/kg
  Predicted human terminal half-life (T1/2): 10.2 to 88.2 min
  Predicted human volume of distribution (Vd): 189 to 455 mL/kg
[4]; Day 1, […], 1440 min
  CL: 11.7 mL/min/kg
  Vss: 0.22 L/kg
  t1/2: 15 min
[4]; Day 1, […]
  Dose-normalized AUClast: 1.36
[4]; Day 5, 0.08 mg/kg, 7200 min
  AUClast: 117 ng·h/mL
[4]; Day 5, 0.08 mg/kg
  Dose-normalized AUClast: 1.46
  concentration at […]: 156 ng/mL
[4]; Day 9, 0.4 mg/kg, 12960 min
  AUClast: 926 ng·h/mL
  CL: 6.83 mL/min/kg
  Vss: 0.24 L/kg
  t1/2: 29.4 min
[4]; Day 9, 0.4 mg/kg
  Dose-normalized AUClast: 2.31
  concentration at […]: 880 ng/mL
[4]; Day 13, 0.8 mg/kg, 18720 min
  AUClast: 3530 ng·h/mL
  CL: 3.52 mL/min/kg
  Vss: 0.32 L/kg
  t1/2: 52.8 min
[4]; Day 13, 0.8 mg/kg
  Dose-normalized AUClast: 4.42
  concentration at […]: 2000 ng/mL
[4]; dog, 25-800 μg/kg i.v.
  Dose proportionality of exposure: exposure increased more than dose-proportionally
[4]; Day 1, 0.025 mg/kg
  concentration at […]: 46.8 ng/mL
